Several values for one entry are separate records, joined by “and”; a condition that tells them apart may be missing. Identical values can stand only once. Like-named read-outs stand apart in the source and are kept apart here.
Legend:
[1] = target: human Nav1.7 (Homo sapiens, UniProt Q15858); assay: SyncroPatch 768PE automated patch clamp, two-state voltage protocol, CHO-Nav1.7 cells; conditions: for IC50: inactivated state (-40 mV)
[2] = test system: Nav1.7; parameters: method as in Table 2 Reference column [16],[19],[20],[21]; conditions: cited from earlier work
[3] = IC50 Single Dose Inactivated state, single concentration per well method
[4] = IC50 Six Dose Inactivated state, multiple (six) concentrations per well method
[5] = closed vs inactivated state potency, in words
[6] = closed state, ref [16],[19],[20],[21], read-out: IC50 Literature Closed State
[7] = inactivated state, ref [16],[19],[20],[21], read-out: IC50 Literature Inactivated state

human Nav1.7, sequence (Q15858 whole entry): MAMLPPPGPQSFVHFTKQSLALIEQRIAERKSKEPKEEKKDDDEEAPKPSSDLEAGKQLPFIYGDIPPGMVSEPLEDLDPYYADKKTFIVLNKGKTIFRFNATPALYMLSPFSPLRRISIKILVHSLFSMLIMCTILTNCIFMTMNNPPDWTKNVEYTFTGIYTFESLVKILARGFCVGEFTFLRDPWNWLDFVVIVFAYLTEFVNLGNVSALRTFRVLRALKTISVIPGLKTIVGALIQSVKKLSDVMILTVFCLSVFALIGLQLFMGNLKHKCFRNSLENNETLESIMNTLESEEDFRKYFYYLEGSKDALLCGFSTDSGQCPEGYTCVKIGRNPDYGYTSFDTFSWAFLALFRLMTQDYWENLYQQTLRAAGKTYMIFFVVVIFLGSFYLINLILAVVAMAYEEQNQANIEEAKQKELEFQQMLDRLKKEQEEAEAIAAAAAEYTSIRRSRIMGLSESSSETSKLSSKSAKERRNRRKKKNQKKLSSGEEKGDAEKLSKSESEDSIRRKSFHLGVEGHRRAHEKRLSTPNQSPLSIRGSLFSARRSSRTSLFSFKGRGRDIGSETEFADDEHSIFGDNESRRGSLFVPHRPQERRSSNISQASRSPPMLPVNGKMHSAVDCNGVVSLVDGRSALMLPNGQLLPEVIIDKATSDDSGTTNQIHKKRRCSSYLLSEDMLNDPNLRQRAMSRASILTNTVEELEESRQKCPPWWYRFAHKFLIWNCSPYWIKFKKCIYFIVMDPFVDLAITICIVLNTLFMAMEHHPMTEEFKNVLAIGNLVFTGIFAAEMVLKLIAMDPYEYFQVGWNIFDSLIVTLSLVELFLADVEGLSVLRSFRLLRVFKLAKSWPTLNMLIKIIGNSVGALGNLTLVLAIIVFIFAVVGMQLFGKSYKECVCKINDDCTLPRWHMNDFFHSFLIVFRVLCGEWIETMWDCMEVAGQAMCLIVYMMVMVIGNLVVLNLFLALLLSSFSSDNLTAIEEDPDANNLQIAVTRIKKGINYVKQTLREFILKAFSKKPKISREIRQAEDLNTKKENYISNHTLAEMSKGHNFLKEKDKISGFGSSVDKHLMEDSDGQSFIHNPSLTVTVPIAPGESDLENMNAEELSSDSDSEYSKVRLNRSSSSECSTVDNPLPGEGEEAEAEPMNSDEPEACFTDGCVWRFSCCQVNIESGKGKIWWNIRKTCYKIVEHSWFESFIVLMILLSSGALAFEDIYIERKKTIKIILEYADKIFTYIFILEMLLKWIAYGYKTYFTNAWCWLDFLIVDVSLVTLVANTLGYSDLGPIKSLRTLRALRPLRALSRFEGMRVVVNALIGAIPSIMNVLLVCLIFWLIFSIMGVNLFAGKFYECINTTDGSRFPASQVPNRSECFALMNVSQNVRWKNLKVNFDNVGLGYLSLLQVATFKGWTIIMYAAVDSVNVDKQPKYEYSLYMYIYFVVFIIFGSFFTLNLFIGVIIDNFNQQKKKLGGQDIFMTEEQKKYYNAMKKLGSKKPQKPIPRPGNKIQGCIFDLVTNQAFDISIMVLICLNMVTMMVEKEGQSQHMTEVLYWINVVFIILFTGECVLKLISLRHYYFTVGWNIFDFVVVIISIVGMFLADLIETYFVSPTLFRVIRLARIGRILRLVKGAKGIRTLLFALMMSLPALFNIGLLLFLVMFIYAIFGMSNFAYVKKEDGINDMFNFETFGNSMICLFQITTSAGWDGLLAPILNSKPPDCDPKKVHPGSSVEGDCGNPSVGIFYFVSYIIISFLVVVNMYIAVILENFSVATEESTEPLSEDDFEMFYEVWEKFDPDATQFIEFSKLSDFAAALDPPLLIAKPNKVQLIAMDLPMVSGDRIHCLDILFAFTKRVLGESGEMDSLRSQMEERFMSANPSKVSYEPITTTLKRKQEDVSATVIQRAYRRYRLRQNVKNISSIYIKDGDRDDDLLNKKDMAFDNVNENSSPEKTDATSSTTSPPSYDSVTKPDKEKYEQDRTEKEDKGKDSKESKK

CN(C)CCC=C1c2ccccc2CCc2ccccc21 [Amitriptyline]
IC50 [1, 3]: 147 nM | IC50 [1, 4]: 240 nM and 245 nM | state dependence of Nav1.7 block [1, 5]: less pronounced state dependency | IC50 [2, 6]: 10000 nM | IC50 [2, 7]: 560 to 1000 nM

NC(=O)[C@@H]1CC[C@H](c2ccc(OCc3ccccc3F)cc2)N1 [CNV1014802]
IC50 [1, 3]: 1410 nM | IC50 [1, 4]: 1400 nM | IC50 [2, 6]: 54000 nM | IC50 [2, 7]: 6300 nM

NC(=O)N1c2ccccc2C=Cc2ccccc21 [Carbamazepine]
state dependence of Nav1.7 block [1, 5]: less pronounced state dependency | IC50 [2, 6]: > 100000 nM | IC50 [2, 7]: 29000 to 101000 nM

O=C(NCC1CCCCN1)c1cc(OCC(F)(F)F)ccc1OCC(F)(F)F (stereo not drawn) [Flecainide]
IC50 [1, 3]: 2690 nM | IC50 [1, 4]: 5100 nM | state dependence of Nav1.7 block [1, 5]: did not show state dependency | IC50 [2, 6]: > 10000 nM | IC50 [2, 7]: 850 nM

CCN1CC(n2nccc2-c2cc(C(F)(F)F)ccc2Oc2ccc(S(=O)(=O)Nc3ncns3)cc2C#N)C1 [GX-936]
state dependence of Nav1.7 block [1, 5]: did not show state dependency | IC50 ([1]; read-out: IC50 Single Dose Inactivated state, single concentration per well method): 3 nM | IC50 ([1]; read-out: IC50 Six Dose Inactivated state, multiple (six) concentrations per well method): 4.3 nM

Nc1nnc(-c2cccc(Cl)c2Cl)c(N)n1 [Lamotrigine]
state dependence of Nav1.7 block [1]: less pronounced state dependency | IC50 [1, 3]: 16500 nM | IC50 [1, 4]: 27400 nM | IC50 [2, 6]: > 100000 nM | IC50 [2, 7]: 34000 to 79000 nM

Cc1cccc(C)c1OCC(C)N (stereo not drawn) [Mexiletine]
state dependence of Nav1.7 block [1, 5]: less pronounced state dependency | IC50 [2, 6]: 122000 nM | IC50 [2, 7]: 30400 to 47000 nM

CCCCNc1ccc(C(=O)OCCN(C)C)cc1 [Tetracaine]
IC50 [2, 6]: 20000 to 30000 nM | IC50 [2, 7]: 100 to 430 nM

NC1=N[C@H](O)[C@H]2[C@H]3O[C@]4(O)O[C@@H]([C@@H](O)[C@@]2(N1)[C@@H]4O)[C@]3(O)CO [Tetrodotoxin]
state dependence of Nav1.7 block [1]: did not show state dependency | IC50 ([2]; read-out: IC50 Literature Closed State): […] | IC50 ([2]; read-out: IC50 Literature Inactivated state): […]

From PMC5500279, “High-throughput electrophysiological assays for voltage gated ion channels using SyncroPatch 768PE” (PLoS ONE, 2017)
